Laboratory results taken from patent US20140088000A1, “Leptin Rescues Neurons from Alzheimer's Disease Related Pathways Triggered by Lipid Burden” (Neurotez, Inc., priority 2012, published 2014).

What was measured:
[1] = test system: AMP-activated protein kinase (AMPK); assay: AMPK activity assay in lysates of treated RA-SY5Y cells (CycLex kit, Compound C-sensitive kinase activity); format: cell-based, human; settings: 6 h, FIG. 2A
Protocol: (§1) RA-SY5Y were treated with Leptin (100 ng/ml) in the presence of ceramide (25 μM), cholesterol (27.5 μg/mL), oleic acid (30 μg/mL) or vehicle (MβCD—675 μg/mL; or DMSO—0.125%) for 6 h, and then harvested by scraping. Preparation of whole cell lysates from cell pellets was performed as described previously (32).
AMPK activity in RA-SY5Y cell lysates was determined using the CycLex AMPK Kinase Assay Kit (MBL International; Woburn, Mass.), as previously described (33, 34). Briefly, “relative AMPK activity”, hereafter referred to as “AMPK activity”, is defined as Compound C-sensitive protein kinase activity in cell lysates. […] Lysates were incubated in the presence or absence of 10 μM Compound C, and protein kinase activity determined by measuring phosphorylation of the Insulin Receptor Substrate-I (IRS-1) through immunoassay and conversion of a chromogenic substrate at an absorbance of 450 nm (Ai50). […]
We have previously shown that Leptin regulates AD pathways via activation of the cellular energy sensors, AMP-activated protein kinase (AMPK) and the sirtuins (SIRT) in neuronal cells (35, 36). To this end, we determined whether Leptin has the ability to attenuate these effects on cellular energetics in an acute model of metabolic stress (FIG. 2). […]

[2] = test system: tau; assay: Phospho-tau (pThr231, pSer396) and total tau ELISA in RA-SY5Y lysates; format: cell-based, human; settings: 6 h, FIG. 3; for effect of lipid insult on tau phosphorylation (pTau231, pTau396): no Leptin, normalized to total tau
Protocol: as §1
Aβ(1-40) levels in cell culture media from SY5YAPP751 cells treated for 18 h with the aforementioned metabolic insults in the presence or absence of Leptin, were determined using the Human βAmyloid 1-40 ELISA kit (Invitrogen; Carlsbad, Calif.), and phospho- and total tau levels in RASY5Y lysates were determined using the Human Tau pSer396, pThr231 and Total Tau ELISA kits (Invitrogen) according to manufacturer's specific instructions. Aβ(1-40), phosho- and total tau levels were calculated from a standard curve developed with OD at 450 nm using 8 serial dilutions of known concentration.
Metabolic stress has been linked to the activation of AD pathological pathways, with lipids known to play an important role (21-23). We therefore investigated the extent to which lipids can induce hyperphosphorylation of tau (FIG. 3) and AP production (FIG. 4) in neuronal cells, and determined whether Leptin could prevent these effects. Utilizing similar lipid doses as previous experiments, RA-SY5Y were treated for 6 h with Leptin (100 ng/mL) or control in the presence or absence of ceramide, cholesterol or oleic acid, and phosphorylation of tau at two different epitopes, pTau231 (FIG. 3A) or pTau396 (FIG. 3B), as well as total tau measured by ELISA.

[3] = test system: sirtuins (SIRT); assay: SIRT (total sirtuin) activity assay in lysates of treated RA-SY5Y cells (nicotinamide-sensitive deacetylase activity); format: cell-based, human; settings: Leptin 100 ng/mL, 6 h, with ceramide, cholesterol or oleic acid, FIG. 2B
Protocol: as §1
“Total sirtuin”, hereafter termed “SIRT’, activity in cell lysates was determined using the HDAC Fluorimetric Cellular Activity Assay Kit (Enzo Life Sciences; Plymouth Meeting, Pa.), according to manufacturer's specified guidelines. Briefly, SIRT activity is defined as nicotinamide-sensitive deacetylase (class III HDAC) activity in cell lysates. 5 mM nicotinamide was identified by the manufacturer as a dose in which there was no further reduction in deacetylase activity upon increasing concentration. RA-SY5Y cell lysates were incubated in the presence or absence of 5 mM nicotinamide, and SIRT activity determined by adding the Flour de Lys Substrate for deacetylation followed by exposure to the Fluor de Lys Developer to generate a fluorescent signal for detection using a fluorimeter (EX−350-380 nm/Em440-460 nm). Normalized SIRT activity was measured in units of fluorescence intensity (Fi) and defined as: (Filysate−Filysate+nicotinamide)/μg proteinlysate. […]

[4] = mice having mutations on the ob gene, administration of leptin; cited from earlier work
[5] = test system: RA-SY5Y cells; assay: Cell viability assay (Cell-Titer Blue) during lipid/metabolic insult; format: cell-based, human
Protocol: The human neuroblastoma cell line, SH-SY5Y, was purchased from ATCC. Cell culture was performed according to manufacturer's specific guidelines. Cells were propagated in MEM containing 10% FBS. Neuronal differentiation was performed as described previously (32).
RA-SY5Y, at 2×10^4 cells/well, were seeded in 96-well microplates and treated for 48 h with a range of concentrations of MβCD, DMSO, ceramide, cholesterol or oleic acid to determine effective doses for 50-70% viability (data not shown), or in the presence of a range of concentrations of Leptin to determine effective doses to prevent cell death. Viability was assessed using the Cell-Titer Blue Viability Assay (Promega) by adding 20 μL of the reagent to each well for 4 h, and plates read by a microplate reader with fluorescence capabilities at Ex530-570 nm/Em580-620 nm. Viability was determined using a standard curve of known cell number and plotted as a percent of non-treated or vehicle control.
Doses of the lipids which decreased neuronal viability by 25-50% (Ceramide—25 μM; Cholesterol—27.5 μg/mL and Oleic Acid—30 μg/mL) after 18 h treatment (data not shown) were used to determine whether co-treatment with Leptin, an important modulator of lipid homeostasis, could attenuate the toxic effects of the insults (FIG. 1). RA-SY 5Y were treated for 18 h with either a low (10 ng/mL; gray bars) or moderate (100 ng/mL; black bars) dose of Leptin or control (white bars) in the presence or absence of ceramide, cholesterol or oleic acid, and cell viability measured. All lipid insults induced a significant (p<0.05) decrease in cell viability in the range of 35±15% when treated with control alone.

[6] = test system: Aβ; settings: neurons; cited from earlier work
[7] = test system: Aβ(1-40); assay: Extracellular Aβ(1-40) ELISA in culture media of SY5Y cells stably over-expressing human APP751; format: cell-based; settings: Leptin 100 ng/mL, 18 h, SY5Y APP751, with ceramide, cholesterol or oleic acid; FIG. 4
Protocol: To generate SY5Y stably over-expressing amyloid precursor protein (APP), cells were transfected with a mammalian expression vector encoding the 751 amino acid isoform of human APP (APP751—Accession #NM 201413) (Origene Technologies; Rockville, Md.) using the FuOENE HD transfection reagent, according to manufacturer's specific instructions (Promega; Madison, Wis.). Briefly, cells were transiently transfected with APP751 or vehicle for 48 h and then switched into selection medium containing a concentration range of the antibiotic 0418 (100-600 μg/mL) to determine the optimal dose for stable selection. Selection media was changed every 3 days to remove non-viable cells. After 3 weeks, 200 μg/mL 0418 yielded distinct colonies while all vehicle-transfected cells were non-viable. […] Aβ(1-40) levels in cell culture media from SY5YAPP751 cells treated for 18 h with the aforementioned metabolic insults in the presence or absence of Leptin, were determined using the Human βAmyloid 1-40 ELISA kit (Invitrogen; Carlsbad, Calif.), and phospho- and total tau levels in RASY5Y lysates were determined using the Human Tau pSer396, pThr231 and Total Tau ELISA kits (Invitrogen) according to manufacturer's specific instructions. Aβ(1-40), phosho- and total tau levels were calculated from a standard curve developed with OD at 450 nm using 8 serial dilutions of known concentration. […]

[8] = transgenic model of AD; cited from earlier work

Row | Compound | effect of lipid insult on AMPK activity ([1]; cholesterol 27.5 μg/mL, no Leptin) | effect of lipid insult on tau phosphorylation (pTau231, pTau396) [2] | SIRT activity under lipid insult with Leptin [3] | reduction of body weight [4] [%] | AMPK activity under lipid insult with Leptin ([1]; Leptin 100 ng/mL, with ceramide, cholesterol or oleic acid) | tau hyperphosphorylation under lipid insult with Leptin ([2]; Leptin 100 ng/mL simultaneous treatment, oleic acid insult (far right group)) | cell viability under lipid insult, low dose Leptin ([5]; Leptin 10 ng/mL, 18 h, with ceramide, cholesterol or oleic acid, FIG. 1) | cell viability under lipid insult, moderate dose Leptin ([5]; Leptin 100 ng/mL, 18 h, with ceramide, cholesterol or oleic acid, FIG. 1) | cell viability under lipid insult, high dose Leptin ([5]; Leptin 1000 ng/mL, versus 100 ng/mL group, data not shown) | amount of Aβ secreted into the medium [6] | extracellular Aβ(1-40) levels under lipid insult with Leptin [7] | cognitive performance [8] | tau phosphorylation and Aβ production [8]
1 | CC(C)CCC[C@@H](C)[C@H]1CC[C@H]2[C@@H]3CC=C4C[C@@H](O)CC[C@]4(C)[C@H]3CC[C@]12C [Cholesterol, cholesterol, reference compound] | significantly (p<0.05) suppress | induced significant (p<0.05) increases in tau phosphorylation at either epitope |  |  |  |  |  |  |  |  |  |  | 
2 | CCCCCCCC/C=C\CCCCCCCC(=O)O [Oleic Acid, oleic acid] |  | induced significant (p<0.05) increases in tau phosphorylation at either epitope |  |  |  |  |  |  |  |  |  |  | 
3 | Leptin: recombinant human Leptin purchased from Sigma-Aldrich; adipocyte-derived helical protein hormone |  |  | significantly (p<0.05) boost both AMPK and SIRT activity in response to all lipid insults, with the exception of ceramide for SIRT | 30 | significantly (p<0.05) boost both AMPK and SIRT activity in response to all lipid insults | significantly (p<0.05) prevented this hyperphosphorylation | significantly (p<0.05) improve viability only in response to the cholesterol insult | significantly (p<0.05) improved viability in response to all challenges | not significantly (p>0.05) different from the moderate group's viability | reduces the amount of Aβ secreted into the medium in a time- and dose-dependent fashion | significantly (p<0.05) reduced Aβ(1-40) levels as similar to control | improves cognitive performance | reduces both tau phosphorylation and Aβ production
